From patent US20240067693A1, “POLYPEPTIDES AND USES THEREOF” (MEDIMMUNE LIMITED, priority 2020, published 2024)
Numbered stars: 1 amine (or outer) side, 2 acyl side, 3 side chain; on linkers, the order of the positions; unused ones are H or OH. Bridge positions count the residues as written; N and C are the ends. Square brackets hold non-standard residues; d marks the D form. Side chains are listed from the residue outwards. Peptide text beside a SMILES is read from it. * marks the point of attachment. C18 diacid = O=C(O)CCCCCCCCCCCCCCCCC(=O)*; γGlu = O=C(O)[C@H](CCC(=O)[*:2])N[*:1]; αMeF = C[C@](N)(Cc1ccccc1)C(=O)O

How the values were obtained:
[1] = biological target: T1, human amylin receptor (calcitonin receptor co-expressed with receptor activity modifying protein, RAMP3) (hAMYR3) (Homo sapiens, UniProt O60896+P30988); experiment: cAMP production in 1321N1 cells with stable recombinant expression of human amylin receptor (hAMYR3); format: cell-based; conditions: for Ratio (selectivity hAMYR vs hCTR, ratio of EC50 values at the two receptors): EC50 hCTR / EC50 hAMYR3; for EC50: cAMP, 1321N1 cells, assay buffer with 0.1% BSA, read-out: EC50 (pM) hAMYR3
T1 construct: expressed in transfected cells
T1 sequence (P30988 25-474): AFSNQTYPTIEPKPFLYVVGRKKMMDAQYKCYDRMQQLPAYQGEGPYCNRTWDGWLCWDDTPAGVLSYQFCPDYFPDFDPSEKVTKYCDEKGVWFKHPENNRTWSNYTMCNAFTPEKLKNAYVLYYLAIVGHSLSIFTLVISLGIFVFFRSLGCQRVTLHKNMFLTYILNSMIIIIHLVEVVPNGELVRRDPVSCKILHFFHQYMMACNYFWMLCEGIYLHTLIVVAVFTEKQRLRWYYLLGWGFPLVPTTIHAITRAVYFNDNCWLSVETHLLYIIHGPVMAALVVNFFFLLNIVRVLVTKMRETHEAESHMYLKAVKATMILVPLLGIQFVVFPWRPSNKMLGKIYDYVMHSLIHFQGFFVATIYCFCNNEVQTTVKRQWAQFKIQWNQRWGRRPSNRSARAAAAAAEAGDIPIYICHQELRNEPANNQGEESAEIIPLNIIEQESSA
T1 sequence (O60896 24-148 partner): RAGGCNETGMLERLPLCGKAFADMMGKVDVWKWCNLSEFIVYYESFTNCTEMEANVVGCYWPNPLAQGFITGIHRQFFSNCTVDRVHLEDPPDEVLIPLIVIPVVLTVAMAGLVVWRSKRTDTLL
Procedure, shortened: (§1)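 Thawed cells in HBSS/0.1% BSA/25 mM HEPES pH 7.4 with 0.5 mM IBMX were incubated with peptides 30 min at room temperature; cAMP read by HTRF. EC50 from 4-parameter fit of % activation relative to maximal amylin or calcitonin effect.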

[2] = biological target: T2, rat amylin receptor (calcitonin receptor co-expressed with receptor activity modifying protein, RAMP3) (Rat AMYR3) (Rattus norvegicus, UniProt P32214+Q9JJ73); experiment: cAMP production in HEK cells with stable recombinant expression of rat amylin receptor (Rat AMYR3); format: cell-based; conditions: assay buffer with 0.1% BSA
T2 construct: expressed in transfected cells
T2 sequence (P32214 25-516): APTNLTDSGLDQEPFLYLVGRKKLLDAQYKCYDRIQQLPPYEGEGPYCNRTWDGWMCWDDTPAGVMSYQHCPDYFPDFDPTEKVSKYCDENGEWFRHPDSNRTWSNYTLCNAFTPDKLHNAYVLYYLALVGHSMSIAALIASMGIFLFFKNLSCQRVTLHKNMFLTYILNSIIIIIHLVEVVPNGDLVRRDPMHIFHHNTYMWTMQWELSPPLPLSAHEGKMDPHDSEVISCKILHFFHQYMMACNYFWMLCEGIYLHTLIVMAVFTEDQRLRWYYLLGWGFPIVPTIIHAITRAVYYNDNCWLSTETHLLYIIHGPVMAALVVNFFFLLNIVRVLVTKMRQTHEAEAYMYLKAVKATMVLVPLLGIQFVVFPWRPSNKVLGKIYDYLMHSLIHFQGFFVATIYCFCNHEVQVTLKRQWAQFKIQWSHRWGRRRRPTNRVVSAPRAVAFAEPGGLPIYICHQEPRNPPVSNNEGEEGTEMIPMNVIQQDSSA
T2 sequence (Q9JJ73 23-147 partner): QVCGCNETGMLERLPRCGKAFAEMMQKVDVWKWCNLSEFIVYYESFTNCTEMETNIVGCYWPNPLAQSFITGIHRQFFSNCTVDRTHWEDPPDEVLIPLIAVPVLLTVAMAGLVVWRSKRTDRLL
Procedure, shortened: as §1

lean rats = experiment: Rat acute food intake study; format: in vivo; conditions: lean male Sprague Dawley rats, 20 nmol/kg subcutaneously
Procedure, shortened: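 Male Sprague Dawley rats (n=7/group), fasted 6 h, received 20 nmol/kg test compound or 60 nmol/kg pramlintide subcutaneously 30 min before food return at dark onset. Food intake recorded automatically in home cages over 3 days, binned hourly and analysed as cumulative dark-period intake; body weight taken daily.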

| Ratio (selectivity hAMYR vs hCTR, ratio of EC50 values at the two receptors) [1] | EC50 [1] [pM] | EC50 [2] [pM] | Structure (SMILES) | Cummulative food intake (% vehicle treated intake) At 12 h (lean rats) [% vehicle treated intake] | Cummulative food intake (% vehicle treated intake) At 24 h (lean rats) [% vehicle treated intake] | Cummulative food intake (% vehicle treated intake) At 48 h (lean rats) [% vehicle treated intake] |
| --- | --- | --- | --- | --- | --- | --- |
| 8 | 158 | 5 | CC[C@H](C)[C@H](NC(=O)[C@@H]1CCCN1C(=O)CNC(=O)[C@](C)(Cc1ccccc1)NC(=O)[C@H](CC(N)=O)NC(=O)[C@H](CC(N)=O)NC(=O)[C@H](CO)NC(=O)[C@H](CO)NC(=O)[C@H](Cc1c[nH]cn1)NC(=O)[C@H](CCCNC(=N)N)NC(=O)[C@H](CC(C)C)NC(=O)[C@H](Cc1ccccc1)NC(=O)[C@H](CCC(=O)O)NC(=O)[C@H](C)NC(=O)[C@H](CC(C)C)NC(=O)[C@H](CCCNC(=N)N)NC(=O)[C@H](CCC(N)=O)NC(=O)[C@@H](NC(=O)[C@H](C)NC(=O)[C@@H]1CSSC[C@H](NC(=O)[C@H](CCCCN)NC(=O)[C@@H](N)CCCCNC(=O)CC[C@H](NC(=O)CCCCCCCCCCCCCCCCC(=O)O)C(=O)O)C(=O)N[C@@H](CC(N)=O)C(=O)N[C@@H]([C@@H](C)O)C(=O)N[C@@H](C)C(=O)N[C@@H]([C@@H](C)O)C(=O)N1)[C@@H](C)O)C(=O)N[C@@H](CC(C)C)C(=O)N1CCC[C@H]1C(=O)N1CCC[C@H]1C(=O)N[C@H](C(=O)N[C@@H](CC(N)=O)C(=O)N[C@H](C(=O)NCC(=O)N[C@@H](CO)C(=O)N[C@@H](CC(N)=O)C(=O)N[C@H](C(=O)N[C@@H](Cc1ccc(O)cc1)C(N)=O)[C@@H](C)O)C(C)C)[C@@H](C)O [Peptide 12, K(γE-C18diacid)K[CNTATC]ATQRLAEFLRHSSNN(αMePhe)GPILPPTNVGSNTY-amide] (H-K([γGlu-C18 diacid])KCNTATCATQRLAEFLRHSSNN[αMeF]GPILPPTNVGSNTY-NH2; disulfide 3-8; N-terminus assumed) | 9.4 | 7.5 | 23.6 |
| 10 | 522 | 10.3 | CC[C@H](C)[C@H](NC(=O)[C@@H]1CCCN1C(=O)CNC(=O)[C@](C)(Cc1ccccc1)NC(=O)[C@H](CC(N)=O)NC(=O)[C@H](CC(N)=O)NC(=O)[C@H](CO)NC(=O)[C@H](CO)NC(=O)[C@H](Cc1c[nH]cn1)NC(=O)[C@H](CCCNC(=N)N)NC(=O)[C@H](CC(C)C)NC(=O)[C@H](Cc1ccccc1)NC(=O)[C@H](CC(N)=O)NC(=O)[C@H](C)NC(=O)[C@H](CC(C)C)NC(=O)[C@H](CCCNC(=N)N)NC(=O)[C@H](CCC(N)=O)NC(=O)[C@@H](NC(=O)[C@H](C)NC(=O)[C@@H]1CSSC[C@H](NC(=O)[C@H](CCCCN)NC(=O)[C@@H](N)CCCCNC(=O)CC[C@H](NC(=O)CCCCCCCCCCCCCCCCC(=O)O)C(=O)O)C(=O)N[C@@H](CC(N)=O)C(=O)N[C@@H]([C@@H](C)O)C(=O)N[C@@H](C)C(=O)N[C@@H]([C@@H](C)O)C(=O)N1)[C@@H](C)O)C(=O)N[C@@H](CC(C)C)C(=O)N1CCC[C@H]1C(=O)N1CCC[C@H]1C(=O)N[C@H](C(=O)N[C@@H](CCC(=O)O)C(=O)N[C@H](C(=O)NCC(=O)N[C@@H](CO)C(=O)N[C@@H](CC(N)=O)C(=O)N[C@H](C(=O)N[C@@H](Cc1ccc(O)cc1)C(N)=O)[C@@H](C)O)C(C)C)[C@@H](C)O [Peptide 15, K(γE-C18diacid)K[CNTATC]ATQRLANFLRHSSNN(αMePhe)GPILPPTEVGSNTY-amide] (H-K([γGlu-C18 diacid])KCNTATCATQRLANFLRHSSNN[αMeF]GPILPPTEVGSNTY-NH2; disulfide 3-8; N-terminus assumed) | 45.2 | 49.1 | 51 |
| 15 | 319 | 16.5 | CC[C@H](C)[C@H](NC(=O)[C@@H]1CCCN1C(=O)CNC(=O)[C@](C)(Cc1ccccc1)NC(=O)[C@H](CC(N)=O)NC(=O)[C@H](CC(N)=O)NC(=O)[C@H](CO)NC(=O)[C@H](CO)NC(=O)[C@H](Cc1c[nH]cn1)NC(=O)[C@H](CCCNC(=N)N)NC(=O)[C@H](CC(C)C)NC(=O)[C@H](Cc1ccccc1)NC(=O)[C@H](CC(N)=O)NC(=O)[C@H](C)NC(=O)[C@H](CC(C)C)NC(=O)[C@H](CCCNC(=N)N)NC(=O)[C@H](CCC(N)=O)NC(=O)[C@@H](NC(=O)[C@H](C)NC(=O)[C@@H]1CSSC[C@H](NC(=O)[C@@H](N)CCCCNC(=O)CC[C@H](NC(=O)CC[C@H](NC(=O)CCCCCCCCCCCCCCCCC(=O)O)C(=O)O)C(=O)O)C(=O)N[C@@H](CC(N)=O)C(=O)N[C@@H]([C@@H](C)O)C(=O)N[C@@H](C)C(=O)N[C@@H]([C@@H](C)O)C(=O)N1)[C@@H](C)O)C(=O)N[C@@H](CC(C)C)C(=O)N1CCC[C@H]1C(=O)N1CCC[C@H]1C(=O)N[C@H](C(=O)N[C@@H](CCC(=O)O)C(=O)N[C@H](C(=O)NCC(=O)N[C@@H](CO)C(=O)N[C@@H](CC(N)=O)C(=O)N[C@H](C(=O)N[C@@H](Cc1ccc(O)cc1)C(N)=O)[C@@H](C)O)C(C)C)[C@@H](C)O [Peptide 18, K(γE-γE-C18diacid)[CNTATC]ATQRLANFLRHSSNN(αMePhe)GPILPPTEVGSNTY-amide] (H-K([γGlu-γGlu-C18 diacid])CNTATCATQRLANFLRHSSNN[αMeF]GPILPPTEVGSNTY-NH2; disulfide 2-7; N-terminus assumed) | 45.8 | 46.9 | 68.8 |
| 26 | 174 | 10.4 | CC[C@H](C)[C@H](NC(=O)[C@@H]1CCCN1C(=O)CNC(=O)[C@](C)(Cc1ccccc1)NC(=O)[C@H](CC(N)=O)NC(=O)[C@H](CC(N)=O)NC(=O)[C@H](CO)NC(=O)[C@H](CO)NC(=O)[C@H](Cc1c[nH]cn1)NC(=O)[C@H](CCCNC(=N)N)NC(=O)[C@H](CC(C)C)NC(=O)[C@H](Cc1ccccc1)NC(=O)[C@H](CC(N)=O)NC(=O)[C@H](C)NC(=O)[C@H](CC(C)C)NC(=O)[C@H](CCCNC(=N)N)NC(=O)[C@H](CCC(N)=O)NC(=O)[C@@H](NC(=O)[C@H](C)NC(=O)[C@@H]1CSSC[C@H](NC(=O)[C@@H](N)CCCCNC(=O)CC[C@H](NC(=O)CC[C@H](NC(=O)CCCCCCCCCCCCCCCCC(=O)O)C(=O)O)C(=O)O)C(=O)N[C@@H](CC(N)=O)C(=O)N[C@@H]([C@@H](C)O)C(=O)N[C@@H](C)C(=O)N[C@@H]([C@@H](C)O)C(=O)N1)[C@@H](C)O)C(=O)N[C@@H](CC(C)C)C(=O)N1CCC[C@H]1C(=O)N1CCC[C@H]1C(=O)N[C@H](C(=O)N[C@@H](CC(N)=O)C(=O)N[C@H](C(=O)NCC(=O)N[C@@H](CO)C(=O)N[C@@H](CC(N)=O)C(=O)N[C@H](C(=O)N[C@@H](Cc1ccc(O)cc1)C(N)=O)[C@@H](C)O)C(C)C)[C@@H](C)O [Peptide 20, K(γE-γE-C18diacid)[CNTATC]ATQRLANFLRHSSNN(αMePhe)GPILPPTNVGSNTY-amide] (H-K([γGlu-γGlu-C18 diacid])CNTATCATQRLANFLRHSSNN[αMeF]GPILPPTNVGSNTY-NH2; disulfide 2-7; N-terminus assumed) | 27 | 26.2 | 49.7 |
